Measured values taken from the supplement of paper PMC10132981, “Formate overflow drives toxic folate trapping in MTHFD1 inhibited cancer cells” (Nature Metabolism, 2023).

Legend:
SW620 [1] = test: cell viability relative to vehicle (resazurin, 96 h); higher = more viable
Procedure: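 SW620 WT or MTHFD2-/- cells were treated for 96 h with a compound dilution series (log10 M) in RPMI with normal or dialysed FBS. Viability was read by resazurin and is given as % of vehicle.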

SW620 [2] = test: cell viability relative to lowest-dose well (resazurin, 96 h); higher = more viable; details: RPMI + 10% FBS
Outline: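 HCT116 (500 cells/well) or SW620 (1,000 cells/well) cells were seeded in 50 µl RPMI with 10% FBS plus a metabolite supplement in 384-well plates. Compounds were dispensed from 10 mM DMSO stocks as dilution series, and plates were incubated 96 h at 37 °C, 5% CO2. Viability was read as resazurin (10 µg ml^−1) conversion to resorufin after 5 h, by fluorescence at 595 nm. Values are percent of the lowest-dose well, with independent replicate cultures. Viability was read by resazurin-to-resorufin conversion and normalised to the lowest-dose vehicle well (=100%).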

CN(Cc1cnc2nc(N)nc(N)c2n1)c1ccc(C(=O)N[C@@H](CCC(=O)O)C(=O)O)cc1 [methotrexate]
Details	cell viability [%]
SW620 [1], log10 compound concentration (M): -8.33985, supplement / serum: RPMI + Normal FBS, base medium: RPMI-1640	95.4
SW620 [1], log10 compound concentration (M): -8.33985, supplement / serum: Vehicle, base medium: RPMI + dialysed FBS	109
SW620 [1], log10 compound concentration (M): -8.81697, supplement / serum: Hypoxanthine + AICAr 10μM, base medium: RPMI + dialysed FBS	117
SW620 [1], log10 compound concentration (M): -8.81697, supplement / serum: Hypoxanthine + AICAr 30μM, base medium: RPMI + dialysed FBS	98.4
SW620 [1], log10 compound concentration (M): -8.81697, supplement / serum: Hypoxanthine + AICAr 50μM, base medium: RPMI + dialysed FBS	108
SW620 [1], log10 compound concentration (M): -8.81697, supplement / serum: Hypoxanthine + AICAr 100μM, base medium: RPMI + dialysed FBS	90.3
SW620 [1], log10 compound concentration (M): -8.81697, supplement / serum: Hypoxanthine, base medium: RPMI + dialysed FBS	100
SW620 [1], log10 compound concentration (M): -8.81697, supplement / serum: RPMI + Dialyzed FBS + 50μM Hypoxanthine, base medium: RPMI-1640	102
SW620 [1], log10 compound concentration (M): -8.81697, supplement / serum: RPMI + Dialyzed FBS, base medium: RPMI-1640	86.4
SW620 [1], log10 compound concentration (M): -8.81697, supplement / serum: RPMI + Normal FBS, base medium: RPMI-1640	97.4
SW620 [1], log10 compound concentration (M): -8.81697, supplement / serum: Vehicle, base medium: RPMI + dialysed FBS	119
SW620 [1], log10 compound concentration (M): -9.29409, supplement / serum: 50 μM Hypoxanthine + 50 μM Thymidine, base medium: RPMI + dialysed FBS	93.5
SW620 [1], log10 compound concentration (M): -9.29409, supplement / serum: Hypoxanthine + AICAr 10μM, base medium: RPMI + dialysed FBS	118
SW620 [1], log10 compound concentration (M): -9.29409, supplement / serum: Hypoxanthine + AICAr 30μM, base medium: RPMI + dialysed FBS	105
SW620 [1], log10 compound concentration (M): -9.29409, supplement / serum: Hypoxanthine + AICAr 50μM, base medium: RPMI + dialysed FBS	113
SW620 [1], log10 compound concentration (M): -9.29409, supplement / serum: Hypoxanthine + AICAr 100μM, base medium: RPMI + dialysed FBS	102
SW620 [1], log10 compound concentration (M): -9.29409, supplement / serum: Hypoxanthine, base medium: RPMI + dialysed FBS	97.3
SW620 [1], log10 compound concentration (M): -9.29409, supplement / serum: RPMI + Dialyzed FBS + 50μM Hypoxanthine, base medium: RPMI-1640	96.1
SW620 [1], log10 compound concentration (M): -9.29409, supplement / serum: RPMI + Dialyzed FBS, base medium: RPMI-1640	98.9
SW620 [1], log10 compound concentration (M): -9.29409, supplement / serum: RPMI + Normal FBS, base medium: RPMI-1640	99.1
SW620 [1], log10 compound concentration (M): -9.29409, supplement / serum: Vehicle, base medium: RPMI + dialysed FBS	112
SW620 [1], log10 compound concentration (M): -9.77121, supplement / serum: Hypoxanthine + AICAr 10μM, base medium: RPMI + dialysed FBS	112.06
SW620 [1], log10 compound concentration (M): -9.77121, supplement / serum: Hypoxanthine + AICAr 30μM, base medium: RPMI + dialysed FBS	94.8
SW620 [1], log10 compound concentration (M): -9.77121, supplement / serum: Hypoxanthine + AICAr 50μM, base medium: RPMI + dialysed FBS	120.1
SW620 [1], log10 compound concentration (M): -9.77121, supplement / serum: Hypoxanthine + AICAr 100μM, base medium: RPMI + dialysed FBS	98.9
SW620 [1], log10 compound concentration (M): -9.77121, supplement / serum: Hypoxanthine, base medium: RPMI + dialysed FBS	101
SW620 [1], log10 compound concentration (M): -9.77121, supplement / serum: RPMI + Dialyzed FBS + 50μM Hypoxanthine, base medium: RPMI-1640	94.8
SW620 [1], log10 compound concentration (M): -9.77121, supplement / serum: RPMI + Dialyzed FBS, base medium: RPMI-1640	96.3
SW620 [1], log10 compound concentration (M): -9.77121, supplement / serum: RPMI + Normal FBS, base medium: RPMI-1640	88.1
SW620 [1], log10 compound concentration (M): -9.77121, supplement / serum: Vehicle, base medium: RPMI + dialysed FBS	114
SW620 [2], 0.001 µM, metabolite supplement: 50uM thymidine	96.3
SW620 [2], 0.001 µM, metabolite supplement: 50uM thymidine + 250uM hypoxanthine	95.7
SW620 [2], 0.001 µM, metabolite supplement: 250uM hypoxanthine	98.8
SW620 [2], 0.001 µM, metabolite supplement: vehicle	98
SW620 [2], 0.00278 µM, metabolite supplement: 50uM thymidine	95
SW620 [2], 0.00278 µM, metabolite supplement: 50uM thymidine + 250uM hypoxanthine	94.5
SW620 [2], 0.00278 µM, metabolite supplement: 250uM hypoxanthine	99.5
SW620 [2], 0.00278 µM, metabolite supplement: vehicle	96.3
SW620 [2], 0.00774 µM, metabolite supplement: 50uM thymidine	76.7
SW620 [2], 0.00774 µM, metabolite supplement: 50uM thymidine + 250uM hypoxanthine	93.4
SW620 [2], 0.00774 µM, metabolite supplement: 250uM hypoxanthine	96.2
SW620 [2], 0.00774 µM, metabolite supplement: vehicle	79.3
SW620 [2], 0.0215 µM, metabolite supplement: 50uM thymidine	42.2
SW620 [2], 0.0215 µM, metabolite supplement: 50uM thymidine + 250uM hypoxanthine	97.4
SW620 [2], 0.0215 µM, metabolite supplement: 250uM hypoxanthine	75.1
SW620 [2], 0.0215 µM, metabolite supplement: vehicle	60.4
SW620 [2], 0.0599 µM, metabolite supplement: 50uM thymidine	34.3
SW620 [2], 0.0599 µM, metabolite supplement: 50uM thymidine + 250uM hypoxanthine	90.2
SW620 [2], 0.0599 µM, metabolite supplement: 250uM hypoxanthine	32.8
SW620 [2], 0.0599 µM, metabolite supplement: vehicle	33.7
SW620 [2], 0.167 µM, metabolite supplement: 50uM thymidine	34.8
SW620 [2], 0.167 µM, metabolite supplement: 50uM thymidine + 250uM hypoxanthine	96.4
SW620 [2], 0.167 µM, metabolite supplement: 250uM hypoxanthine	28
SW620 [2], 0.167 µM, metabolite supplement: vehicle	26.9
SW620 [2], 0.464 µM, metabolite supplement: 50uM thymidine	33.1
SW620 [2], 0.464 µM, metabolite supplement: 50uM thymidine + 250uM hypoxanthine	94.7
SW620 [2], 0.464 µM, metabolite supplement: 250uM hypoxanthine	28.3
SW620 [2], 0.464 µM, metabolite supplement: vehicle	27
SW620 [2], 1.29 µM, metabolite supplement: 50uM thymidine	32.6
SW620 [2], 1.29 µM, metabolite supplement: 50uM thymidine + 250uM hypoxanthine	87.5
SW620 [2], 1.29 µM, metabolite supplement: 250uM hypoxanthine	28.4
SW620 [2], 1.29 µM, metabolite supplement: vehicle	26.4
SW620 [2], 3.59 µM, metabolite supplement: 50uM thymidine	30.9
SW620 [2], 3.59 µM, metabolite supplement: 50uM thymidine + 250uM hypoxanthine	83.6
SW620 [2], 3.59 µM, metabolite supplement: 250uM hypoxanthine	29.6
SW620 [2], 3.59 µM, metabolite supplement: vehicle	28.3
SW620 [2], 10 µM, metabolite supplement: 50uM thymidine	30.5
SW620 [2], 10 µM, metabolite supplement: 50uM thymidine + 250uM hypoxanthine	83.6
SW620 [2], 10 µM, metabolite supplement: 250uM hypoxanthine	29.5
SW620 [2], 10 µM, metabolite supplement: vehicle	29.3
